# Tested on: Mus musculus
# Experiment: Toxicity in ip dosed mouse assessed as respiratory arrest
# Type: organism-based
# Details: in vivo
smiles,measurement,value
C=C1[C@@H]2CCC3[C@@](CC[C@@H]4[C@H](C(=O)O)C[C@@H](O[C@@H]5O[C@H](CO)[C@@H](OS(=O)(=O)[O-])[C@H](OS(=O)(=O)[O-])[C@H]5OC(=O)CC(C)C)C[C@@]34C)(C2)[C@@H]1O.[K+].[K+] (stereo partly specified) [ATRACTYLOSIDE],Activity,Toxic
